Test results taken from patent US5679701A (priority 1996, dated 1997).
Entries after “also recorded” stand apart in the source; their conditions may differ. Like-named read-outs stand apart in the source and are kept apart here.

Experiments:
[1] = target: T1, ryanodine receptor (skeletal sarcoplasmic reticulum membrane vesicles) (Oryctolagus cuniculus, UniProt P11716); test: biochemical; assay type: binding; details: first embodiment
T1 construct: skeletal sarcoplasmic reticulum membrane vesicles; from tissue; host or cells: skeletal muscle sarcoplasmic reticulum membrane vesicles

[2] = target: T2, Sarcoplasmic Reticular Ca^++ -Release Channel (ryanodine receptor) (Oryctolagus cuniculus, UniProt P11716); details: Table II; footnote * J. MED. CHEM. 30 710 (1987); cited from earlier work
T2 construct: skeletal sarcoplasmic reticulum membrane vesicles; from tissue; host or cells: skeletal muscle sarcoplasmic reticulum membrane vesicles

[3] = target: SR Ca^2+ release channel (junctional SR vesicles from rabbit skeletal muscle) (Oryctolagus cuniculus, UniProt P11716); test: biochemical; assay type: biochemical
Experimental: Briefly, junctional SR vesicles from rabbit skeletal muscle were passively loaded with. ^45 Ca^2+ in the presence and absence of the esters. Ca^2+ -efflux was then initiated by diluting the vesicles 100-fold into a low Ca^2+ -concentration. ^45 Ca^2+ remaining in the vesicles was determined after a 3 sec. efflux period by termination and filtration of the vesicles followed by liquid scintillation counting.

[4] = tested on: mammalian cardiac muscle; details: cited from earlier work
[5] = tested on: mammalian skeletal muscle; details: cited from earlier work
[6] = tested on: skeletal muscle sarcoplasmic reticulum (SR); details: cited from earlier work
[7] = tested on: SR Ca^++ release channel/ryanodine receptor (cardiac and skeletal muscle vesicles); assay type: biochemical; details: ryanodine; for opening of the SR Ca^++ release channel (in words): dehydroryanodine: low concentrations (<μM)
[8] = 45Ca2+ efflux, skeletal SR vesicles

SR Ca^2+ release channel (junctional SR vesicles from rabbit skeletal muscle), sequence (P11716 whole entry): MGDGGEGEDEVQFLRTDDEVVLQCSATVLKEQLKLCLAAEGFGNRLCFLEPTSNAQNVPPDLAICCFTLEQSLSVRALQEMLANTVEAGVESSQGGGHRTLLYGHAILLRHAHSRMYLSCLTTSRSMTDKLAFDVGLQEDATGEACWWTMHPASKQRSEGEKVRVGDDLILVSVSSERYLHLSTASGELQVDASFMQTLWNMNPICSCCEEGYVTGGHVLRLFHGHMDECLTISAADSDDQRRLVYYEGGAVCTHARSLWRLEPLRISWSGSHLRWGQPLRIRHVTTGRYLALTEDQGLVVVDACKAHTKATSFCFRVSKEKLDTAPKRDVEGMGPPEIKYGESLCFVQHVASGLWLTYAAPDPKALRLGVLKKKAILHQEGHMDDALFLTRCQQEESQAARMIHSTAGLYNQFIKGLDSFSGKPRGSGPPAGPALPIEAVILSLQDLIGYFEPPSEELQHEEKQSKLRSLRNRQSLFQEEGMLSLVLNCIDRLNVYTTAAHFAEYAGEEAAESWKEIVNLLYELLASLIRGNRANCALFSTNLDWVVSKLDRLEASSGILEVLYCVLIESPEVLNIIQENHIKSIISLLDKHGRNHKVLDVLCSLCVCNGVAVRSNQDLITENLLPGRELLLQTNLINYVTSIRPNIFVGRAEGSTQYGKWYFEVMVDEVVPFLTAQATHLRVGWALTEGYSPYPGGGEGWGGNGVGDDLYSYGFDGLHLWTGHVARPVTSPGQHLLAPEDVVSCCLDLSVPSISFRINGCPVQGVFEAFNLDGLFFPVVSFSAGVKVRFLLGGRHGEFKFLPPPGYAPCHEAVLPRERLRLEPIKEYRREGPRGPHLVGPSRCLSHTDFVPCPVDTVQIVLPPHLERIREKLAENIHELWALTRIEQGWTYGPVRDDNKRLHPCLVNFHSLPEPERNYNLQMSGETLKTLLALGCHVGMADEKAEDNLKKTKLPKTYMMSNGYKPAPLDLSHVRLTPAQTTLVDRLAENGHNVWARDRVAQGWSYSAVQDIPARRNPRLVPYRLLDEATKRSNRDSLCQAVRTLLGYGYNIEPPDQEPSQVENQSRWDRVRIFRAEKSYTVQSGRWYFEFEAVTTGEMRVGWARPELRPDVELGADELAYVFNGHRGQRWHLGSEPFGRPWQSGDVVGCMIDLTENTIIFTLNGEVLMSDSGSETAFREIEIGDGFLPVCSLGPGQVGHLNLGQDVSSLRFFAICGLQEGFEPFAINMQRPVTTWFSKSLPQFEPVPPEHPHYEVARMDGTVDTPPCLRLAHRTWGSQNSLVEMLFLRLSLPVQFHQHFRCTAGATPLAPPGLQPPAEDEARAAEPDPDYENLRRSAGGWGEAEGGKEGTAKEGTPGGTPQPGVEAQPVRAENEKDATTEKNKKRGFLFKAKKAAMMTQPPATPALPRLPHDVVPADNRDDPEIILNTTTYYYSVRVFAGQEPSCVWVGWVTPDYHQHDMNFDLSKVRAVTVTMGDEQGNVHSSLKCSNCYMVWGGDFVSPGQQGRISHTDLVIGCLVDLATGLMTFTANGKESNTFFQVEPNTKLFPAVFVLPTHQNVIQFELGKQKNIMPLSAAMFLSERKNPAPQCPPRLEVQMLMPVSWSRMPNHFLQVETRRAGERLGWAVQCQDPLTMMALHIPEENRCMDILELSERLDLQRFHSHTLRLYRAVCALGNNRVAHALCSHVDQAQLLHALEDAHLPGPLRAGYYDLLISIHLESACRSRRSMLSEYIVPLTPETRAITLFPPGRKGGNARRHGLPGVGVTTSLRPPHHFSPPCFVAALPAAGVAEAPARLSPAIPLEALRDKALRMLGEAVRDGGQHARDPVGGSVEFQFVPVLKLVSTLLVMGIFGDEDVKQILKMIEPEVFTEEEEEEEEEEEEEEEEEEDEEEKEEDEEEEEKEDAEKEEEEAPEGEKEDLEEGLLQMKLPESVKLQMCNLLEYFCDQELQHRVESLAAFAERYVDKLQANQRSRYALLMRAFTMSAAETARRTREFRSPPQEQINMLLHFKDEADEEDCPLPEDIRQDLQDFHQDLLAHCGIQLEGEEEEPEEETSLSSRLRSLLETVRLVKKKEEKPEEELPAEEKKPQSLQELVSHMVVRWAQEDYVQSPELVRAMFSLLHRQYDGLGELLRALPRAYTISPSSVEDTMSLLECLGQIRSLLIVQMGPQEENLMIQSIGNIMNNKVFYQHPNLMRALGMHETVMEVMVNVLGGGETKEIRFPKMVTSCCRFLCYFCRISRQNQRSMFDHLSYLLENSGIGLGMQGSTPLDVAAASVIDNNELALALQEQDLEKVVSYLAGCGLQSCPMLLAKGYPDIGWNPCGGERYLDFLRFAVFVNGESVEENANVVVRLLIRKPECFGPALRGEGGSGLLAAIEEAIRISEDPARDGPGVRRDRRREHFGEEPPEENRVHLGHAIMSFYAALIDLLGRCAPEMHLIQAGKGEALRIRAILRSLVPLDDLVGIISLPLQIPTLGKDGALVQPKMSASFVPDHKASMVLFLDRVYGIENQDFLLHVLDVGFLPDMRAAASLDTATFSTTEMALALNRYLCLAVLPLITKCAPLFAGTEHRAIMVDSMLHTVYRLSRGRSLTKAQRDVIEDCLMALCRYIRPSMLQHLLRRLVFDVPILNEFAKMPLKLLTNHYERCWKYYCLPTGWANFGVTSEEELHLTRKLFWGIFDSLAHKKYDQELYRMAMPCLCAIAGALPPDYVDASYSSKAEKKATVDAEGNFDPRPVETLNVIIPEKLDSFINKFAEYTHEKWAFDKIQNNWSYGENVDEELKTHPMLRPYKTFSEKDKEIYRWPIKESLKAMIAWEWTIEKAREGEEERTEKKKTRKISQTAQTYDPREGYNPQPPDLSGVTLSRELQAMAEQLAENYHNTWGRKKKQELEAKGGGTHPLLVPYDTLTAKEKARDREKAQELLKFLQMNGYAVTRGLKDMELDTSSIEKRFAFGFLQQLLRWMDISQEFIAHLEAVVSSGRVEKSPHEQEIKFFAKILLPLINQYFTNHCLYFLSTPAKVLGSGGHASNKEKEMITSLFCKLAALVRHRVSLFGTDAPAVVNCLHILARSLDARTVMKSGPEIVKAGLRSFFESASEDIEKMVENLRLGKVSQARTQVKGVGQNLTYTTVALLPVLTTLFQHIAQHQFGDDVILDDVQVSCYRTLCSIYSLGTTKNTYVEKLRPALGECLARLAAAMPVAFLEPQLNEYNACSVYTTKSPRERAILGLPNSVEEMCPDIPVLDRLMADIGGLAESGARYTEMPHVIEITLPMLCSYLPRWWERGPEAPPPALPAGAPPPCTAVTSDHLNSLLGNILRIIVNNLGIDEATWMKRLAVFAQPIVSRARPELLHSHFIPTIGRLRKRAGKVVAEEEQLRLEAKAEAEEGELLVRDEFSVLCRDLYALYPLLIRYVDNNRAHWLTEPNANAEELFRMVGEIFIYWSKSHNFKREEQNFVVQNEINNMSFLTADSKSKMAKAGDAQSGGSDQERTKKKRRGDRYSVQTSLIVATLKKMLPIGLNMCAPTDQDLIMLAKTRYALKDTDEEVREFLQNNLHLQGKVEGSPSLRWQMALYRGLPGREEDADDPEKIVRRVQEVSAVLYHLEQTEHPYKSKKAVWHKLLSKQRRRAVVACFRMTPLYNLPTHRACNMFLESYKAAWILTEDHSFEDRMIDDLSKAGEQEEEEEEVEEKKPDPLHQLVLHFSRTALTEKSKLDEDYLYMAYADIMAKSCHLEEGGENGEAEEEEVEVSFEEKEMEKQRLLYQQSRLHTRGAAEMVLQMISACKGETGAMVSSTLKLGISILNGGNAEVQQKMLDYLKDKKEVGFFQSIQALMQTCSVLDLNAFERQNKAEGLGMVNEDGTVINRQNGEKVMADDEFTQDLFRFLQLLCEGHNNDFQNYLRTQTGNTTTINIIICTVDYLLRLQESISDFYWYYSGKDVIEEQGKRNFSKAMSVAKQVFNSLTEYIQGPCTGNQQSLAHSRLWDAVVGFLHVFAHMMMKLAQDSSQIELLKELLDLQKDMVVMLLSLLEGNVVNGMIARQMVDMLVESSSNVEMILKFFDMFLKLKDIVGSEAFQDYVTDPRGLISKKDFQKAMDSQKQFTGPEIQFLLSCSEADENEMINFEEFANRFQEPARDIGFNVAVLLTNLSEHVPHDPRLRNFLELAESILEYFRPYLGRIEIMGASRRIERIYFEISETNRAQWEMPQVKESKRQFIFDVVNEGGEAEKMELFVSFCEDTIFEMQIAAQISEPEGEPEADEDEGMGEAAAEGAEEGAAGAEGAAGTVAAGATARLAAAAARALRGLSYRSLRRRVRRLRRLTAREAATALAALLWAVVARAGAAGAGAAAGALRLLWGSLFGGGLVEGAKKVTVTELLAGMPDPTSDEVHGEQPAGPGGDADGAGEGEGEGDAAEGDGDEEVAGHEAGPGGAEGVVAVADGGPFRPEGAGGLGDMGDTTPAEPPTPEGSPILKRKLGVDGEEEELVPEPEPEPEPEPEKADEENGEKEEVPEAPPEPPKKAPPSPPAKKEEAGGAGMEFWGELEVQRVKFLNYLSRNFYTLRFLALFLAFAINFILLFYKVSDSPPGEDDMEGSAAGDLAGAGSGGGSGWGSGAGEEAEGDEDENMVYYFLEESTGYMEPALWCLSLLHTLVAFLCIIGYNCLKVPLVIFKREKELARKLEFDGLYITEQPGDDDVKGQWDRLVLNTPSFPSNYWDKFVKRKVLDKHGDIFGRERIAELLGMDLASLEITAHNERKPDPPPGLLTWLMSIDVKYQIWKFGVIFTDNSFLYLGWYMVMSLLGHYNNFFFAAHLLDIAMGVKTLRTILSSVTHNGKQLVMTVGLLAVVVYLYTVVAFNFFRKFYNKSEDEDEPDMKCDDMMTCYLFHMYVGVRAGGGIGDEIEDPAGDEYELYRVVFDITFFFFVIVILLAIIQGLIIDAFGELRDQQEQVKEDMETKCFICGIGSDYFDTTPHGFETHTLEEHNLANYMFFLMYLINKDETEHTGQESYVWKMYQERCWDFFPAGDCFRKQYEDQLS
T1 sequence (P11716 whole entry): as above
T2 sequence (P11716 whole entry): as above

CC1=C(C(C)C)[C@@H](OC(=O)c2ccc[nH]2)[C@@]2(O)[C@@]3(C)CC(=O)O[C@@]4([C@H](O)[C@@H](C)CC[C@]34O)[C@@]12O [Anhydro-Ryanodine, reference compound]
IC50 ([1]; read-out: IC50): > 1000 nM
Kd ([1]; read-out: KD): > 350 nM
IC50 [2]: > 1000 nM

CC1CCC2(O)C3(C)CC4(O)OC2(C1O)C1(O)C3(O)C(OC(=O)c2ccc[nH]2)C(O)(C(C)C)C41C (stereo not drawn) [Ryanodine, ryanodine]
opening (activation) of the SR CRC (in words) [3]: activates the SR CRC at low μM concentrations; also recorded: induces full opening of the SR CRC
concentration inducing deactivation of the channel [3, 8]: higher than 30 μM
concentration of maximal channel activation [3, 8]: about 30 μM
effect on mammalian cardiac muscle (in words) [4]: negative inotropic effect
effect on mammalian skeletal muscle (in words) [5]: irreversible contracture
effect on active uptake of Ca^++ by skeletal muscle SR (in words) [6]: obstruct active uptake
closing of the SR Ca^++ release channel (in words) ([7]; I, NMDS: concentrations as high as 300 μM, dehydroryanodine: >μM): closes or inactivates the SR Ca^++ release channels; also recorded: inhibits Ca^++ flux by inactivating or closing the channel; also recorded: the channel is closed
opening of the SR Ca^++ release channel (in words) [7]: opens the SR Ca^++ release channel/ryanodine receptor
opening of the SR Ca^++ release channel (in words) ([7]; listed as ryanodine): enhances Ca^++ flux across the SR membrane by opening the SR Ca^++ release channel; also recorded: the Ca^++ release channel is opened
